1 compound from ChEMBL document CHEMBL4130350, “Discovery, mechanism and metabolism studies of 2,3-difluorophenyl-linker-containing PARP1 inhibitors with enhanced in vivo efficacy for cancer therapy” (Eur J Med Chem, 2017) can be followed below.

In data set [1] the test system is CAPAN-1. The experiment in a line: Effect on total chk1 protein levels in human Capan1 cells at 0.1 to 1 uM after 48 hrs by Western blot analysis. The settings on record: capan-1, 48 h. In kind it is ADME, cell-based.
For data set [2], the system named is MDA-MB-436. The experiment in a line: Induction of apoptosis in human MDA-MB-436 cells assessed as early apoptotic cells at 0.1 uM after 96 hrs in presence of pancaspase inhibitor Z-VAD-FMK by Annexin V-FITC/propidium iodide double-staining based flow cytometery (reference value: 2.32%). In kind it is functional. Background: Flow cytometry measures light scatter and fluorescence of single cells or particles in a stream.

The test system of data set [3] is MDA-MB-436. The experiment in a line: Antiproliferative activity against human MDA-MB-436 cells after 7 days by CCK8 or SRB assay. The class given is functional, cell-based. The settings on record: MDA-MB-436, 168 h. A general note: Tetrazolium dyes change colour on reduction, which living cells bring about.
For data set [4], the system named is CAPAN-1. The experiment in a line: Cell cycle arrest in human Capan1 cells assessed as accumulation at G2/M phase at 1 uM after 72 hrs by propidium iodide-staining based flow cytometry (reference value: 15.26%). The class given is functional.
The test system of data set [5] is MDA-MB-436. The experiment in a line: Induction of apoptosis in human MDA-MB-436 cells assessed as early apoptotic cells at 1 uM after 96 hrs by Annexin V-FITC/propidium iodide double-staining based flow cytometery (reference value: 1.90%). The class given is functional.
Data set [6] concerns CAPAN-1. The experiment in a line: Antitumor activity against human Capan1 cells harboring BRCA2 mutant xenografted in nude BALB/cA mouse assessed as tumor growth inhibition at 40 mg/kg, po administered once daily for 21 consecutive days measured twice per week. The class given is functional. As to conditions: CAPAN-1, po, read-out: TGI. Background: In xenograft studies the graft and the host belong to different species.

For data set [7], the system named is MDA-MB-436. The experiment in a line: Antitumor activity against human MDA-MB-436 cells harboring BRCA1 mutant xenografted in nude BALB/cA mouse assessed as tumor growth inhibition at 50 mg/kg, po administered once daily for 21 consecutive days measured twice per week. The class given is functional. The settings on record: MDA-MB-436, po, read-out: TGI.
Data set [8] relates to MDA-MB-436. The experiment in a line: Induction of apoptosis in human MDA-MB-436 cells assessed as early apoptotic cells at 0.1 uM after 96 hrs by Annexin V-FITC/propidium iodide double-staining based flow cytometery (reference value: 1.90%). The class given is functional.
A short description of data set [9]: Stability in mouse plasma at 1 uM up to 60 mins by LC-MS/MS analysis. The class given is ADME, cell-free. As to conditions: read-out: Stability.
Data set [10] concerns the target T1, Poly [ADP-ribose] polymerase 1 (Homo sapiens, UniProt P09874). The experiment in a line: Inhibition of PARP1 in BRCA1 deficient human MDA-MB-436 cells assessed as increase in DNA double stranded breaks by measuring gammaH2AX levels after 72 hrs by Western blot analysis. The class given is cell-based.
Data set [11] relates to MDA-MB-436. The experiment in a line: Induction of apoptosis in human MDA-MB-436 cells assessed as late apoptotic cells at 1 uM after 96 hrs by Annexin V-FITC/propidium iodide double-staining based flow cytometery (reference value: 5.61%). In kind it is functional.
The nature of data set [12]: Drug metabolism in mouse liver microsomes assessed as oxidative metabolite formation at 2 uM up to 60 mins in presence of NADPH by LC-MS/MS analysis. The settings on record: 1 h. In kind it is ADME, microsome.
A short description of data set [13]: Drug metabolism in mouse liver microsomes assessed as dehydrogenation at 2 uM up to 60 mins in presence of NADPH by LC-MS/MS analysis. The class given is ADME, microsome. The settings on record: 1 h.
The test system of data set [14] is CAPAN-1. The experiment in a line: Antiproliferative activity against human Capan1 cells after 7 days by CCK8 or SRB assay. The settings on record: CAPAN-1, 168 h. In kind it is functional, cell-based.
Data set [15] concerns the target T1, Poly [ADP-ribose] polymerase 1. The experiment in a line: Inhibition of PARP1 (unknown origin) by ELISA.
Data set [16] is described as follows: Retention time in mouse liver microsomes at 2 uM up to 60 mins in presence of NADPH by LC-MS/MS analysis. As to conditions: 1 h. The class given is ADME, microsome.
The test system of data set [17] is MDA-MB-436. The experiment in a line: Induction of apoptosis in human MDA-MB-436 cells assessed as late apoptotic cells at 0.1 uM after 96 hrs by Annexin V-FITC/propidium iodide double-staining based flow cytometery (reference value: 5.61%). The class given is functional.
The test system of data set [18] is CAPAN-1. The experiment in a line: Cell cycle arrest in human Capan1 cells assessed as accumulation at S phase at 0.1 uM after 72 hrs by propidium iodide-staining based flow cytometry (reference value: 21.42%). The class given is functional.
Data set [19] can be described thus: Apparent permeability across basolateral to apical side in human Caco2 cells assessed as drug recovery at 16870 pmol after 2 hrs by LC-MS/MS analysis. As to conditions: Caco-2, read-out: Drug recovery. The class given is ADME, cell-based.
Data set [20] addresses T1, Poly [ADP-ribose] polymerase 1. The experiment in a line: Inhibition of PARP1 in human Capan1 cells assessed as increase in phosphorylated chk1 protein levels at 0.1 to 1 uM after 48 hrs by Western blot analysis. The class given is cell-based.
Data set [21] shares this target. The experiment in a line: Inhibition of PARP1 in BRCA1 deficient human MDA-MB-436 cells assessed as increase in DNA double stranded breaks by measuring gammaH2AX levels after 48 hrs by Western blot analysis. In kind it is cell-based.

Calls of active or inactive are those of the source. The rule behind the calls is not given here.

T1 sequence (P09874 whole entry): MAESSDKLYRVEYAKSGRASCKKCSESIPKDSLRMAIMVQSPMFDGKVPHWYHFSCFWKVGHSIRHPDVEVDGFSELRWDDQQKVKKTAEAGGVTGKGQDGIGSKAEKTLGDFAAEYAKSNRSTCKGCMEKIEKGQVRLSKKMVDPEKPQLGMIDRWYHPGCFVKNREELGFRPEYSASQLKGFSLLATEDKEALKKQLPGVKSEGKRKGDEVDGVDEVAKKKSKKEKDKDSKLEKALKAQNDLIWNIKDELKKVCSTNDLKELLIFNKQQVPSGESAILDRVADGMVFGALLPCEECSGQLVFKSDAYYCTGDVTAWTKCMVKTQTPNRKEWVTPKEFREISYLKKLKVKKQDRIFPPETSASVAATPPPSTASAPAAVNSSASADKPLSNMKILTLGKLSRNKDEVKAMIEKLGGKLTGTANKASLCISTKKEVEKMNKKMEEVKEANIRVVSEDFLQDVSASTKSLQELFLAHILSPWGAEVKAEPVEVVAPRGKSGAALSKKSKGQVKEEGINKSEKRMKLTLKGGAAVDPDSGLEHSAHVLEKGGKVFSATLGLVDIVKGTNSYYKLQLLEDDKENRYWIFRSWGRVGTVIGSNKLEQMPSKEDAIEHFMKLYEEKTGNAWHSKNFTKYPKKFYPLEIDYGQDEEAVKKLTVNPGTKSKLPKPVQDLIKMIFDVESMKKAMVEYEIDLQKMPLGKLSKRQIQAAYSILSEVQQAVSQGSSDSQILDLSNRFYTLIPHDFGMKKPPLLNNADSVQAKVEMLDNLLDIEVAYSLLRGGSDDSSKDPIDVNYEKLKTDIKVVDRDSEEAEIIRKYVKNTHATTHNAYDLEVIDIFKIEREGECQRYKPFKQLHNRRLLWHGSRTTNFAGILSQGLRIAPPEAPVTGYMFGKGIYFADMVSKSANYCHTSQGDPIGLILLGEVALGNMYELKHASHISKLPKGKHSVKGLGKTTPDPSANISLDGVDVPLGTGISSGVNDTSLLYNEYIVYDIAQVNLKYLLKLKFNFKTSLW

By IC50 is commonly meant the midpoint of a concentration-inhibition curve. Low values mean inhibition by little substance, high ones a need for much substance. As to `N#Cc1cccnc1N1CCN(C(=O)c2cc(Cc3n[nH]c(=O)c4ccccc34)cc(F)c2F)CC1`, the Activity entry in data set [1] was “Non-Toxic”; in [2], 6.48%; in data set [4], 49.95%; in data set [5], 7.09%; in [8], 5.36%; in data set [11] it was 32.34%. Moreover, the figures for the Activity in data set [17] and in data set [18] were 29.32% and 26.75%, respectively. Further, the IC50 came to 0.2 nM in [3], 7.1 nM in [14] and 1.3 nM in data set [15]. Besides, the inhibition in vivo at 40 mg/kg in data set [6] amounted to 48.1%. Also, the inhibition in vivo at 50 mg/kg in data set [7] was 94.2%. In addition, the remaining at 1 h, 1 µM in data set [9] worked out at 105%. In addition, the inhibition result in [10] and in data set [21] was “Dose-dependent effect” in each case. For the same compound, the Drug metabolism entry in [12] and in data set [13] was “Metabolite_Detected” throughout. The Retention_time in [16] came to 7.8 min. For the same compound, the recovery at 2 h in data set [19] came to 109%. Further, the inhibition entry in data set [20] is “Active”.
